The values that follow come from patent publication US12139520B2 (priority 2020, dated 2024).

Numbered stars: 1 amine (or outer) side, 2 acyl side, 3 side chain; on linkers, the order of the positions; unused ones are H or OH. Bridge positions count the residues as written; N and C are the ends. Square brackets hold non-standard residues; d marks the D form. Peptide text beside a SMILES is read from it. * marks the point of attachment. C20 diacid = O=C(O)CCCCCCCCCCCCCCCCCCC(=O)*; γGlu = O=C(O)[C@H](CCC(=O)[*:2])N[*:1]; Hyp = O=C(O)[C@@H]1C[C@@H](O)CN1; Cit = NC(=O)NCCC[C@H](N)C(=O)O

In one experiment the target is T1, hAMY3 receptor (Homo sapiens, UniProt O60896+P30988).
T1 sequence (P30988 25-474): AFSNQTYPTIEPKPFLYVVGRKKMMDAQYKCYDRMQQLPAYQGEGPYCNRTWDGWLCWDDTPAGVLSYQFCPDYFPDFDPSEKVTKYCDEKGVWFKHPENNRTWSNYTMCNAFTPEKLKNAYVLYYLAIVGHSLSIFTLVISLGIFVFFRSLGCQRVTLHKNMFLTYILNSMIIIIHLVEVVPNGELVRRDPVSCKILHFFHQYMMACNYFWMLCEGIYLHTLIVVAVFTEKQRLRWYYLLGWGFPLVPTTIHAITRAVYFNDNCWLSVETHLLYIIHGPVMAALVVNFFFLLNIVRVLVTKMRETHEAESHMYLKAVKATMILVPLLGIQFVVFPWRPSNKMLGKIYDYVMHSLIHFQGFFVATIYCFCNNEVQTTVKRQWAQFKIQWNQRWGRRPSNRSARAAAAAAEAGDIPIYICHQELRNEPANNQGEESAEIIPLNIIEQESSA
T1 sequence (O60896 24-148 partner): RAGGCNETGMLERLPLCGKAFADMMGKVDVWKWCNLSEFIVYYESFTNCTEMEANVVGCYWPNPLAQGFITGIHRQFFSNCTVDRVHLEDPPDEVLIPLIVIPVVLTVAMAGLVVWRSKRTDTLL
Kind of experiment: cAMP assay for in vitro receptor activation, hAMY3-R. Format: cell-based. The following applies: cAMP assay, hAMY3 receptor; read-out: hAMY3R EC50. A digest of the protocol: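 Graded compound concentrations were applied for 30 min at room temperature to stably hAMY3-expressing cells in DPBS, 0.05% casein, 0.5 mM IBMX; cAMP detected by TR-FRET.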
For orientation: Cyclic AMP is a second messenger, typically raised through Gs and lowered through Gi signalling.

The next experiment concerns the target hAM1 receptor (Homo sapiens, UniProt O60895+Q16602). Kind of experiment: cAMP assay for in vitro receptor activation, hAM1-R. Format: cell-based. The following applies: cAMP assay, hAM1 receptor; read-out: hAM1R EC50. A digest of the protocol:
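Monoclonal stable hAM1-overexpressing cells, thawed from frozen stock; 8000 cells/well in DPBS + 0.05% casein + 0.5 mM IBMX; read-out cAMP.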

Chain of hAM1 receptor (Q16602 23-461): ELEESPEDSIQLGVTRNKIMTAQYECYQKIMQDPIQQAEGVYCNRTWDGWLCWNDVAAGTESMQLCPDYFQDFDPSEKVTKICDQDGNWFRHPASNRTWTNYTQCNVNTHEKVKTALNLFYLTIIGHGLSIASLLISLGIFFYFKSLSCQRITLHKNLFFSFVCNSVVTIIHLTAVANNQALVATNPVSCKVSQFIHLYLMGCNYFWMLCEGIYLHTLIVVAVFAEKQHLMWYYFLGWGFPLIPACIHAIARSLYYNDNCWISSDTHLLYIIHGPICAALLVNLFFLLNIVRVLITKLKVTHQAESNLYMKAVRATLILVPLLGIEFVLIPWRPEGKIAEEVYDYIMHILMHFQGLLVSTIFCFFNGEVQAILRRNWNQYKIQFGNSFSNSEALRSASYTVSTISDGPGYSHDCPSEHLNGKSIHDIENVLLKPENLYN
Chain of hAM1 receptor (O60895 43-175 partner): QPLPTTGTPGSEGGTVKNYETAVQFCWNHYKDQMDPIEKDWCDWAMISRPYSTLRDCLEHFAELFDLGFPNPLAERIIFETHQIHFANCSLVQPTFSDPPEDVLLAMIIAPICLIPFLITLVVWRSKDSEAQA

Regarding `CC[C@H](C)[C@H](NC(=O)[C@H](CCC(N)=O)NC(=O)[C@H](CCC(=O)O)NC(=O)[C@H](C)NC(=O)[C@H](CC(C)C)NC(=O)[C@H](CCCNC(N)=O)NC(=O)[C@H](CCC(N)=O)NC(=O)[C@@H](NC(=O)[C@@H](NC(=O)[C@@H]1CSSC[C@H](NC(=O)[C@H](CCCCN)NC(=O)CC[C@H](NC(=O)CCCCCCCCCCCCCCCCCCC(=O)O)C(=O)O)C(=O)N[C@@H](CC(N)=O)C(=O)N[C@@H]([C@@H](C)O)C(=O)N[C@@H](C)C(=O)N[C@@H]([C@@H](C)O)C(=O)N1)[C@@H](C)O)C(C)C)C(=O)N[C@@H](C)C(=O)N[C@@H](CCC(N)=O)C(=O)N[C@@H](Cc1ccccc1)C(=O)N[C@H](C(=O)N[C@@H](CC(=O)O)C(=O)N[C@@H](CCCCN)C(=O)N[C@@H](CC(=O)O)C(=O)N[C@@H](CCCCN)C(=O)N[C@@H](CC(=O)O)C(=O)N[C@@H](CC(N)=O)C(=O)N[C@H](C(=O)N[C@@H](C)C(=O)N1CCC[C@H]1C(=O)N1CCC[C@H]1C(=O)N[C@H](C(=O)N[C@@H](CC(N)=O)C(=O)N[C@H](C(=O)NCC(=O)N[C@@H](CO)C(=O)N[C@@H](CC(N)=O)C(=O)NCC(=O)N1C[C@H](O)C[C@H]1C(N)=O)C(C)C)[C@@H](C)O)C(C)C)[C@@H](C)O` [compound 153] ({C20 diacid-γGlu}-KCNTATCTVQ[Cit]LAEQIAQFTDKDKDNVAPPTNVGSNG[Hyp]-NH2; disulfide 2-7), the figures for the half-maximal effective concentration (EC50) on hAMY3 receptor and at hAM1 receptor were 0.041 nM and greater than 5000 nM, respectively.
For the compound `CC[C@H](C)[C@H](NC(=O)[C@H](CCC(N)=O)NC(=O)[C@H](Cc1c[nH]cn1)NC(=O)[C@H](C)NC(=O)[C@H](CC(C)C)NC(=O)[C@H](CCCNC(=N)N)NC(=O)[C@H](CCC(N)=O)NC(=O)[C@@H](NC(=O)[C@@H](NC(=O)[C@@H]1CSSC[C@H](NC(=O)CN)C(=O)N[C@@H](CCCNC(=N)N)C(=O)N[C@@H](Cc2ccccc2)C(=O)NCC(=O)N[C@@H]([C@@H](C)O)C(=O)N1)[C@@H](C)O)C(C)C)C(=O)N[C@@H](Cc1ccc(O)cc1)C(=O)N[C@@H](CCC(N)=O)C(=O)N[C@@H](Cc1ccccc1)C(=O)N[C@H](C(=O)N[C@@H](CC(=O)O)C(=O)N[C@@H](CCCCN)C(=O)N[C@@H](CC(=O)O)C(=O)N[C@@H](CCCCN)C(=O)N[C@@H](CC(=O)O)C(=O)N[C@@H](CC(N)=O)C(=O)N[C@H](C(=O)N[C@@H](C)C(=O)N1CCC[C@H]1C(=O)N[C@@H](CCCNC(=N)N)C(=O)N[C@H](C(=O)N[C@@H](CCCCN)C(=O)N[C@H](C(=O)N[C@@H](CO)C(=O)N1CCC[C@H]1C(=O)N[C@@H](CCC(N)=O)C(=O)NCC(=O)N[C@@H](Cc1ccc(O)cc1)C(N)=O)C(C)C)[C@@H](C)O)C(C)C)[C@@H](C)O` [compound 155] (H-GCRFGTCTVQRLAHQIYQFTDKDKDNVAPRTKVSPQGY-NH2; disulfide 2-7; N-terminus assumed), the figures for the EC50 on hAMY3 receptor and on hAM1 receptor were 0.045 nM and 116 nM, respectively.
Regarding `CC[C@H](C)[C@H](NC(=O)[C@H](CCC(N)=O)NC(=O)[C@H](Cc1c[nH]cn1)NC(=O)[C@H](C)NC(=O)[C@H](CC(C)C)NC(=O)[C@H](CCCNC(=N)N)NC(=O)[C@@H](NC(=O)[C@@H](NC(=O)[C@@H](NC(=O)[C@@H]1CSSC[C@H](NC(=O)[C@H](CCCCN)NC(=O)CC[C@H](NC(=O)CCCCCCCCCCCCCCCCCCC(=O)O)C(=O)O)C(=O)N[C@@H](CC(N)=O)C(=O)N[C@@H]([C@@H](C)O)C(=O)N[C@@H](C)C(=O)N[C@@H]([C@@H](C)O)C(=O)N1)[C@@H](C)O)C(C)C)[C@@H](C)CC)C(=O)N[C@@H](Cc1ccc(O)cc1)C(=O)N[C@@H](CCC(N)=O)C(=O)N[C@@H](Cc1ccccc1)C(=O)N[C@H](C(=O)N[C@@H](CC(=O)O)C(=O)N[C@@H](CCCCN)C(=O)N[C@@H](CC(=O)O)C(=O)N[C@@H](CCCCN)C(=O)N[C@@H](CC(=O)O)C(=O)N[C@@H](CC(N)=O)C(=O)N[C@H](C(=O)N[C@@H](C)C(=O)N1CCC[C@H]1C(=O)N1CCC[C@H]1C(=O)N[C@H](C(=O)N[C@@H](CC(N)=O)C(=O)N[C@H](C(=O)NCC(=O)N[C@@H](CO)C(=O)N[C@@H](CC(N)=O)C(=O)NCC(=O)N1C[C@H](O)C[C@H]1C(N)=O)C(C)C)[C@@H](C)O)C(C)C)[C@@H](C)O` [compound 159] ({C20 diacid-γGlu}-KCNTATCTVIRLAHQIYQFTDKDKDNVAPPTNVGSNG[Hyp]-NH2; disulfide 2-7), the EC50 on hAMY3 receptor is 0.048 nM; on hAM1 receptor it was greater than 5000 nM.
Turning to `CC[C@H](C)[C@H](NC(=O)[C@H](C)NC(=O)CNC(=O)[C@H](Cc1ccccc1)NC(=O)[C@H](CC(N)=O)NC(=O)[C@H](CC(N)=O)NC(=O)[C@H](CO)NC(=O)[C@H](CO)NC(=O)[C@H](Cc1c[nH]cn1)NC(=O)[C@@H](NC(=O)[C@H](CC(C)C)NC(=O)[C@H](Cc1ccccc1)NC(=O)[C@H](CC(N)=O)NC(=O)[C@H](C)NC(=O)[C@H](CC(C)C)NC(=O)[C@H](CCCNC(=N)N)NC(=O)[C@H](CCC(N)=O)NC(=O)[C@@H](NC(=O)[C@H](C)NC(=O)[C@@H]1CSSC[C@H](NC(=O)[C@@H](N)CCCCN)C(=O)N[C@@H](CC(N)=O)C(=O)N[C@@H]([C@@H](C)O)C(=O)N[C@@H](C)C(=O)N[C@@H]([C@@H](C)O)C(=O)N1)[C@@H](C)O)C(C)C)C(=O)N[C@@H](CC(C)C)C(=O)N1CCC[C@H]1C(=O)N[C@@H](CO)C(=O)N[C@H](C(=O)N[C@@H](CCCCN)C(=O)N[C@H](C(=O)NCC(=O)N1CCC[C@H]1C(=O)N[C@@H](CC(N)=O)C(=O)NCC(=O)N[C@@H](Cc1ccc(O)cc1)C(N)=O)[C@@H](C)CC)[C@@H](C)O` [compound 162] (H-KCNTATCATQRLANFLVHSSNNFGAILPSTKIGPNGY-NH2; disulfide 2-7; N-terminus assumed), the figures for the EC50 at hAMY3 receptor and on hAM1 receptor were 0.051 nM and greater than 5000 nM, respectively.
With `CC[C@H](C)[C@H](NC(=O)[C@H](C)NC(=O)CNC(=O)[C@H](Cc1ccccc1)NC(=O)[C@H](CC(N)=O)NC(=O)[C@H](CC(N)=O)NC(=O)[C@H](CO)NC(=O)[C@H](CO)NC(=O)[C@H](Cc1c[nH]cn1)NC(=O)[C@@H](NC(=O)[C@H](CC(C)C)NC(=O)[C@H](Cc1ccccc1)NC(=O)[C@H](CC(N)=O)NC(=O)[C@H](C)NC(=O)[C@H](CC(C)C)NC(=O)[C@H](CCCNC(=N)N)NC(=O)[C@H](CCC(N)=O)NC(=O)[C@@H](NC(=O)[C@H](C)NC(=O)[C@@H]1CSSC[C@H](NC(=O)[C@@H](N)CCCCN)C(=O)N[C@@H](CC(N)=O)C(=O)N[C@@H]([C@@H](C)O)C(=O)N[C@@H](C)C(=O)N[C@@H]([C@@H](C)O)C(=O)N1)[C@@H](C)O)C(C)C)C(=O)N[C@@H](CC(C)C)C(=O)N1CCC[C@H]1C(=O)N[C@@H](CO)C(=O)N[C@H](C(=O)N[C@@H](CCCCN)C(=O)N[C@H](C(=O)NCC(=O)N[C@@H](CO)C(=O)N[C@@H](CC(N)=O)C(=O)N[C@H](C(=O)N[C@@H](Cc1ccc(O)cc1)C(N)=O)[C@@H](C)O)[C@@H](C)CC)[C@@H](C)O` [compound 180] (H-KCNTATCATQRLANFLVHSSNNFGAILPSTKIGSNTY-NH2; disulfide 2-7; N-terminus assumed), the results for the 50% effective concentration (EC50) on hAMY3 receptor and at hAM1 receptor were 0.082 nM and greater than 5000 nM, respectively.
Turning to `CC[C@H](C)[C@H](NC(=O)[C@H](CCC(N)=O)NC(=O)[C@H](Cc1c[nH]cn1)NC(=O)[C@H](C)NC(=O)[C@H](CC(C)C)NC(=O)[C@H](CCCNC(=N)N)NC(=O)[C@H](CCC(N)=O)NC(=O)[C@@H](NC(=O)[C@@H](NC(=O)[C@@H]1CSSC[C@H](NC(=O)[C@H](CCCCN)NC(=O)CC[C@H](NC(=O)CCCCCCCCCCCCCCCCCCC(=O)O)C(=O)O)C(=O)N[C@@H](CC(N)=O)C(=O)N[C@@H]([C@@H](C)O)C(=O)N[C@@H](CC(C)C)C(=O)N[C@@H]([C@@H](C)O)C(=O)N1)[C@@H](C)O)C(C)C)C(=O)N[C@@H](Cc1ccc(O)cc1)C(=O)N[C@@H](CCC(N)=O)C(=O)N[C@@H](Cc1ccccc1)C(=O)N[C@H](C(=O)N[C@@H](CC(=O)O)C(=O)N[C@@H](CCCCN)C(=O)N[C@@H](CC(=O)O)C(=O)N[C@@H](CCCCN)C(=O)N[C@@H](CC(=O)O)C(=O)N[C@@H](CC(N)=O)C(=O)N[C@H](C(=O)N[C@@H](C)C(=O)N1CCC[C@H]1C(=O)N1CCC[C@H]1C(=O)N[C@H](C(=O)N[C@@H](CC(N)=O)C(=O)N[C@H](C(=O)NCC(=O)N[C@@H](CO)C(=O)N[C@@H](CC(N)=O)C(=O)NCC(=O)N1C[C@H](O)C[C@H]1C(N)=O)C(C)C)[C@@H](C)O)C(C)C)[C@@H](C)O` [compound 225] ({C20 diacid-γGlu}-KCNTLTCTVQRLAHQIYQFTDKDKDNVAPPTNVGSNG[Hyp]-NH2; disulfide 2-7), the 50% effective concentration (EC50) is 0.186 nM on hAMY3 receptor and greater than 5000 nM on hAM1 receptor.

Broadly, the EC50 is the concentration needed to bring the measured effect to its halfway point.
